These results are taken from ChEMBL document CHEMBL3045630, “Predictive QSAR modeling on tetrahydropyrimidine-2-one derivatives as HIV-1 protease enzyme inhibitors” (Med Chem Res, 2013).

The term Ki denotes the dissociation constant of the complex between target and ligand, obtained from inhibition or displacement.

The target in this assay is Protease (Human immunodeficiency virus 1, UniProt Q9YQ12). Put plainly: Inhibition of Human immunodeficiency virus 1 protease.
Protease, sequence (Q9YQ12 whole entry): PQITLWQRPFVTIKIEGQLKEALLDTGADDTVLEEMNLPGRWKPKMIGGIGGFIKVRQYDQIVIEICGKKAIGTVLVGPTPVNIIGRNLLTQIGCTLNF
As to `O=C1N(Cc2ccccc2)C(Cc2ccccc2)C(O)C(C(Br)Cc2ccccc2)N1Cc1ccccc1` (centres undefined), affinity was put at a Ki of 186 nM. That is a sub-micromolar value.
As for `O=C1NC(CCc2ccccc2)C(O)C(Cc2ccccc2)N1Cc1ccccc1` (centres undefined), the figure is 66.1 nM; as for `N#Cc1cccc(CN2C(=O)NC(CCc3ccccc3)C(O)C2Cc2ccccc2)c1` (centres undefined), 15.1 nM.
To `Nc1cccc(CN2C(=O)NC(CCc3ccccc3)C(O)C2Cc2ccccc2)c1` (centres undefined) belongs 158 nM; to `Nc1cccc(CN2C(=O)NC(Cc3ccccc3)C(O)C2CCc2ccccc2)c1` (centres undefined), 6.17 nM; to `N#Cc1cccc(CN2C(=O)N(Cc3cccc(C#N)c3)C(Cc3ccccc3)C(O)C2CCc2ccccc2)c1` (centres undefined), 11 nM.
As for `CC(=O)c1cccc(CN2C(=O)N(Cc3cccc(C(C)=O)c3)C(Cc3ccccc3)C(O)C2CCc2ccccc2)c1` (centres undefined), the figure is 0.912 nM; as for `NC(=O)c1cccc(CN2C(=O)N(Cc3cccc(C(N)=O)c3)C(Cc3ccccc3)C(O)C2CCc2ccccc2)c1` (centres undefined), 0.0891 nM.
The compound `NC(=O)c1cccc(CN2C(=O)N(Cc3cccc(C(N)=O)c3)C(Cc3ccc(F)cc3)C(O)C2CCc2ccc(F)cc2)c1` (centres undefined) gave an inhibition constant (Ki) of 0.309 nM.
As for `NC(=O)c1cccc(CN2C(=O)N(Cc3cccc(C(N)=O)c3)C(Cc3ccc(F)c(F)c3)C(O)C2CCc2ccc(F)c(F)c2)c1` (centres undefined), the figure is 0.151 nM; as for `N/C(=N/O)c1cccc(CN2C(=O)N(Cc3cccc(/C(N)=N\O)c3)C(Cc3ccc(F)cc3)C(O)C2CCc2ccc(F)cc2)c1` (centres undefined), 0.02 nM; as for `N/C(=N/O)c1cccc(CN2C(=O)N(Cc3cccc(/C(N)=N\O)c3)C(Cc3ccc(F)c(F)c3)C(O)C2CCc2ccc(F)c(F)c2)c1` (centres undefined), 0.01 nM.
As for `N/C(=N/O)c1cc(CN2C(=O)N(Cc3ccc(F)c(/C(N)=N\O)c3)C(Cc3ccc(F)c(F)c3)C(O)C2CCc2ccccc2)ccc1F` (centres undefined), the figure is 0.0603 nM.
As for `Nc1cccc(CN2C(=O)N(Cc3cccc(N)c3)C(Cc3ccccc3)C(O)C2CCc2ccccc2)c1` (centres undefined), the figure is 1.7 nM; as for `Nc1ccc(CN2C(=O)N(Cc3ccc(N)c(F)c3)C(Cc3ccccc3)C(O)C2CCc2ccccc2)cc1F` (centres undefined), 7.94 nM; as for `CNc1cccc(CN2C(=O)N(Cc3cccc(NC)c3)C(Cc3ccccc3)C(O)C2CCc2ccccc2)c1` (centres undefined), 22.9 nM.
Consider `O=C1N(Cc2cccc(-n3cccn3)c2)C(CCc2ccccc2)C(O)C(Cc2ccccc2)N1Cc1cccc(-n2cccn2)c1` (centres undefined), for which the inhibition constant Ki was 0.1 nM.
Regarding `O=C1N(Cc2ccc3[nH]ncc3c2)C(CCc2ccccc2)C(O)C(Cc2ccccc2)N1Cc1ccc2[nH]ncc2c1` (centres undefined), affinity was put at a Ki of 0.0603 nM.
To `Cc1n[nH]c2ccc(CN3C(=O)N(Cc4ccc5[nH]nc(C)c5c4)C(Cc4ccccc4)C(O)C3CCc3ccccc3)cc12` (centres undefined) belongs 0.1 nM; to `Nc1n[nH]c2ccc(CN3C(=O)N(Cc4ccc5[nH]nc(N)c5c4)C(Cc4ccccc4)C(O)C3CCc3ccccc3)cc12` (centres undefined), 0.0302 nM.
`O=C1N(Cc2cccc(O)c2)C(Cc2ccccc2)C(O)C(C(F)Cc2ccccc2)N1Cc1cccc(O)c1` (centres undefined): the affinity corresponds to a Ki of 12 nM.
As for `O=C1N(Cc2cccc(CO)c2)C(Cc2ccccc2)C(O)C(C(Br)Cc2ccccc2)N1Cc1cccc(CO)c1` (centres undefined), the Ki is 11 nM.
To `N#Cc1cc(CN2C(=O)NC(CCc3ccccc3)C(O)C2Cc2ccccc2)ccc1F` (centres undefined) belongs 110 nM.
As for `NC(=O)c1cccc(CN2C(=O)NC(CCc3ccccc3)C(O)C2Cc2ccccc2)c1` (centres undefined), the figure is 5.62 nM.
To `NC(=O)c1cc(CN2C(=O)NC(CCc3ccccc3)C(O)C2Cc2ccccc2)ccc1F` (centres undefined) belongs 14.1 nM; to `N/C(=N/O)c1cccc(CN2C(=O)NC(CCc3ccccc3)C(O)C2Cc2ccccc2)c1` (centres undefined), 0.24 nM.
`N/C(=N/O)c1cc(CN2C(=O)NC(CCc3ccccc3)C(O)C2Cc2ccccc2)ccc1F` (centres undefined) showed a Ki of 1.41 nM.
As for `Cc1n[nH]c2ccc(CN3C(=O)NC(CCc4ccccc4)C(O)C3Cc3ccccc3)cc12` (centres undefined), the figure is 0.38 nM.
As for `O=C1NC(CCc2ccccc2)C(O)C(Cc2ccccc2)N1Cc1ccc2[nH]ncc2c1` (centres undefined), the figure is 1.2 nM.
The compound `N#Cc1cc(CN2C(=O)N(Cc3ccccc3)C(Cc3ccccc3)C(O)C2CCc2ccccc2)ccc1F` (centres undefined) had a Ki of 33.1 nM.
To `N#Cc1cc(CN2C(=O)N(Cc3ccccc3)C(CCc3ccccc3)C(O)C2Cc2ccccc2)ccc1F` (centres undefined) belongs 39.8 nM; to `Nc1n[nH]c2cc(CN3C(=O)N(Cc4ccccc4)C(Cc4ccccc4)C(O)C3CCc3ccccc3)ccc12` (centres undefined), 0.646 nM; to `Nc1n[nH]c2ccc(CN3C(=O)N(Cc4ccccc4)C(CCc4ccccc4)C(O)C3Cc3ccccc3)cc12` (centres undefined), 0.282 nM.
To `Cc1n[nH]c2cc(CN3C(=O)N(Cc4cccc(N)c4)C(Cc4ccccc4)C(O)C3CCc3ccccc3)ccc12` (centres undefined) belongs 0.129 nM; to `N#Cc1cccc(CN2C(=O)N(Cc3cccc(N)c3)C(Cc3ccccc3)C(O)C2CCc2ccccc2)c1` (centres undefined), 1.58 nM; to `Nc1cccc(CN2C(=O)N(Cc3ccc4c(N)n[nH]c4c3)C(CCc3ccccc3)C(O)C2Cc2ccccc2)c1` (centres undefined), 0.1 nM.
As for `N#Cc1cccc(CN2C(=O)N(Cc3cccc(C#N)c3)C(Cc3cccc(F)c3)C(O)C2CCc2ccc(F)cc2)c1` (centres undefined), the figure is 14.1 nM; as for `Nc1cc(CN2C(=O)N(Cc3ccc(F)c(N)c3)C(Cc3ccccc3)C(O)C2CCc2ccccc2)ccc1F` (centres undefined), 0.251 nM; as for `Cc1ccc(C(=O)Nc2cccc(CN3C(=O)N(Cc4cccc(NC(=O)c5ccc(C)cn5)c4)C(Cc4ccccc4)C(O)C3CCc3ccccc3)c2)nc1` (centres undefined), 0.0794 nM.
`CN1C=CSC1C(=O)Nc1cccc(CN2C(=O)N(Cc3cccc(NC(=O)C4SC=CN4C)c3)C(Cc3ccccc3)C(O)C2CCc2ccccc2)c1` (centres undefined): the Ki is 0.0302 nM.
As for `O=C1NC(Cc2ccccc2)C(O)C(CCc2ccccc2)N1Cc1ccc2cn[nH]c2c1` (centres undefined), the figure is 43.7 nM; as for `Nc1cccc(CN2C(=O)N(Cc3ccc4cn[nH]c4c3)C(Cc3ccccc3)C(O)C2CCc2ccccc2)c1` (centres undefined), 0.0794 nM.
To `NC(=O)c1cccc(CN2C(=O)N(Cc3cccc(N)c3)C(Cc3ccccc3)C(O)C2CCc2ccccc2)c1` (centres undefined) belongs 0.0603 nM.
To `O=C1N(Cc2ccccc2)C(CCc2ccccc2)C(O)C(Cc2ccccc2)N1Cc1ccccc1` (centres undefined) belongs 15.1 nM.
